In US20180327806A1, “MULTIPLEX HIGH-[…] OF MICRO-ORGANISM STRAINS, RELATED KITS, D[…] AND SCREENING ASSAYS” (THE BROAD INSTITUTE, INC., priority 2015, published 2018):

Assays:
dfrA hypomorph strain = assay type: cell-based, M. tuberculosis; conditions: drug targeting dfrA
[1] = tested on: PA14 strain with MurA knockdown (hypomorph); assay: Growth of PA14 MurA knockdown (hypomorph) strain with drug; assay type: cell-based, Pseudomonas aeruginosa
Text: Engineering hypersusceptible strains (hypomorph strains): Strain PA14 is engineered so that the expression of selected essential genes may be lowered using a ‘weaker’ promoter. […] 30). It is possible to use a promoter library of varying strengths that was developed to drive GFP expression in E. coli (Davis, J. H., A. J. Rubin, and R. T. Sauer, Design, construction and characterization of a set of insulated bacterial promoters. Nucleic Acids Res, 2011. 39(3): p. 1131-41). […] The weakest promoter that provides the lowest tolerable level of the protein that still yields a viable bacterium may be used for each essential gene to create a hypersensitive strain. It is also proposed to construct control strains by knocking out dihydrofolate reductase dhfr (which is the target of trimethoprim), dihydropteroate synthetase dhps (which is the target of sulfamethoxazole), murA (which is the target of fosfomycin) and ostA (which is the OMP target of POL7001 [Srinivas, N., et al., Peptidomimetic antibiotics target outer-membrane biogenesis in Pseudomonas aeruginosa. Science, 2010. 327(5968): p. 1010-3.]). Then, it is possible to measure the MIC for each of these compounds against their respective strains compared to wild-type PA14.
FIG. 5 illustrates the use of variable promoters for generating and selecting hypomorph strains. […]

SMILES	sensitivity of dfrA hypomorph strain to drug (dose response curve) (dfrA hypomorph strain)	sensitivity of MurA knockdown PA14 strain to drug [1]
CN(Cc1cnc2nc(N)nc(N)c2n1)c1ccc(C(=O)N[C@@H](CCC(=O)O)C(=O)O)cc1 [methotrexate]	hypersensitive	
C[C@@H]1O[C@@H]1P(=O)(O)O [fosfomycin]		hypersensitive
